Measurements published in patent US12214092B2, “Systems and methods for treating biological fluids” (Cerus Corporation, priority 2017, dated 2025).
“And” between values parts separate entries of the source, which are not always exact repeats. Equal entries are not always repeated. Where two headings read alike, the source gives them in different places.

Key:
[1] = Plasma parameters pre- and post-illumination, whole-blood derived plasma, 50 μM amotosalen, ~6.4 J/cm^2
Excerpt: This pool and split format was repeated four times to generate four replicates.

[2] = tested on: S. epidermidis; experiment: Amotosalen and two sequential UV light doses (UVC + UVA) treatment of S. epidermidis in plasma, colony forming unit assay; assay type: cell-based; conditions: 15 μM amotosalen, titer pre-UV 7.51; for Titer Post-Second: ~3 J/cm^2 each
Protocol: Additionally, any two or more wavelengths of narrow bandwidth light are evaluated in combination, such as for example, photochemical treatment of a biological fluid using amotosalen and ultraviolet light of a first peak wavelength and ultraviolet light of a second peak wavelength, sequentially or concurrently. More specifically, in one example pathogen inactivation of E. coli (Gram negative) and S. epidermidis (Gram positive) bacteria was evaluated using amotosalen and the device with LEDs of wavelengths described in Example 8. […] The spiked plasma units were divided into control (no amotosalen+UV light) and treatment (with amotosalen) conditions, with amotosalen used at 15 μM concentration. The units were aliquoted into six-well plates (5 mL/well) for illumination. Pre-illumination samples were taken and control bacterial titers determined using standard colony forming unit assay. […] Data for pre-illumination titers, post-first illumination titer, post-second illumination titer, and post-treatment (after second illumination) residual amotosalen (S-59) are shown in the following Tables 40-41.

[3] = tested on: vesicular stomatitis virus (VSV); assay type: cell-based; conditions: for Log Inact. / Post-Txt Titer / Pre-Txt Titer: 30 μM, listed as amotosalen; for Log inactivation / Post-treatment titer / Pre-treatment titer: 150 μM
[4] = tested on: feline calicivirus (FCV); experiment: Photochemical inactivation of FCV in platelets (35% plasma/65% PAS) with amotosalen and 340 nm UVA, plaque assay; assay type: cell-based
[5] = tested on: platelets
Protocol: Platelets collected in PAS/Plasma (65% PAS III/35% Plasma) were pooled and split into three 285 mL units for the study. Amotosalen (S-59) was added to a concentration of 150 μM, and the units were illuminated one time (˜3.6 J/cm^2 total dose), two times (˜7.2 J/cm^2 total dose), or three times (˜10.8 J/cm^2 total dose) with the narrow band 340 nm LEDs or 365 nm LEDs using the device of Example 1, or with the INT-100 device.
Additionally, various measures of platelet quality were evaluated by standard methodologies immediately after three times UVA illumination (˜10.8 J/cm^2), to identify potential differences among the light sources.

## Cc1oc2c(C)c3oc(=O)cc(C)c3cc2c1COCCN [S-59, 3-(2-aminoethoxymethyl)-2,5,9-trimethylfuro[3,2-g]chromen-7-one]
[1]; 340 nm, Post-UVA
  Factor II: 84.00 IU/dL
  Factor V: 88.83 IU/dL
  Factor VIII: 127.18 IU/dL
  Factor X: 84.68 IU/dL
  Factor XI: 73.93 IU/dL
  Fibrinogen: 259.75 mg/dL
  PT: 12.03 s
  Protein C: 122.33 IU/dL
  Protein S: 118.03 IU/dL
  Total Protein: 72.43 mg/mL
  aPTT: 33.95 s
  pCO2 @ 37° C.: 66.75 mmHg
  pH @ 37° C.: 7.20
  pO2 @ 37° C.: 42.88 mmHg
[1]; 340 nm, Pre-UVA
  Factor II: 93.43 IU/dL
  Factor V: 97.08 IU/dL
  Factor VIII: 165.50 IU/dL
  Factor X: 96.68 IU/dL
  Factor XI: 85.65 IU/dL
  Fibrinogen: 290.00 mg/dL
  PT: 11.68 s
  Protein C: 133.90 IU/dL
  Protein S: 119.00 IU/dL
  Total Protein: 72.13 mg/mL
  aPTT: 31.15 s
  pCO2 @ 37° C.: 67.38 mmHg
  pH @ 37° C.: 7.19
  pO2 @ 37° C.: 131.80 mmHg
[1]; INT-100, Post-UVA
  Factor II: 110.93 IU/dL
  Factor V: 90.25 IU/dL
  Factor VIII: 108.85 IU/dL
  Factor X: 84.53 IU/dL
  Factor XI: 76.63 IU/dL
  Fibrinogen: 261.50 mg/dL
  PT: 12.28 s
  Protein C: 109.30 IU/dL
  Protein S: 121.80 IU/dL
  Total Protein: 70.35 mg/mL
  aPTT: 33.98 s
  pCO2 @ 37° C.: 60.68 mmHg
  pH @ 37° C.: 7.24
  pO2 @ 37° C.: 41.55 mmHg
[1]; INT-100, Pre-UVA
  Factor II: 91.45 IU/dL
  Factor V: 98.55 IU/dL
  Factor VIII: 154.25 IU/dL
  Factor X: 92.40 IU/dL
  Factor XI: 89.55 IU/dL
  Fibrinogen: 278.75 mg/dL
  PT: 11.48 s
  Protein C: 98.55 IU/dL
  Protein S: 111.88 IU/dL
  Total Protein: 80.18 mg/mL
  aPTT: 30.35 s
  pCO2 @ 37° C.: 69.20 mmHg
  pH @ 37° C.: 7.22
  pO2 @ 37° C.: 141.95 mmHg
[2]; Light 1 265 nm then Light 2 325 nm
  Titer Post-Second: <−0.11
[2]; Light 1 265 nm then Light 2 340 nm
  Titer Post-Second: <−0.11
[2]; Light 1 265 nm then Light 2 365 nm
  Titer Post-Second: <−0.11
[2]; Light 1 265 nm ~3 J/cm^2 (then 325 nm)
  Titer Post-First: 4.19
[2]; Light 1 265 nm ~3 J/cm^2 (then 340 nm)
  Titer Post-First: 4.37
[2]; Light 1 265 nm ~3 J/cm^2 (then 365 nm)
  Titer Post-First: 4.12
[2]; Light 1 280 nm then Light 2 325 nm
  Titer Post-Second: <−0.11
[2]; Light 1 280 nm then Light 2 340 nm
  Titer Post-Second: <−0.11
[2]; Light 1 280 nm then Light 2 365 nm
  Titer Post-Second: <−0.11
[2]; Light 1 280 nm ~3 J/cm^2 (then 325 nm)
  Titer Post-First: 4.13
[2]; Light 1 280 nm ~3 J/cm^2 (then 340 nm)
  Titer Post-First: 4.51
[2]; Light 1 280 nm ~3 J/cm^2 (then 365 nm)
  Titer Post-First: 4.19
[2]; Light 1 325 nm then Light 2 265 nm
  Titer Post-Second: <−0.11
[2]; Light 1 325 nm then Light 2 280 nm
  Titer Post-Second: <−0.11
[2]; Light 1 325 nm ~3 J/cm^2 (then 265 nm)
  Titer Post-First: <−0.11
[2]; Light 1 325 nm ~3 J/cm^2 (then 280 nm)
  Titer Post-First: <−0.11
[2]; Light 1 340 nm then Light 2 265 nm
  Titer Post-Second: <−0.11
[2]; Light 1 340 nm then Light 2 280 nm
  Titer Post-Second: <−0.11
[2]; Light 1 340 nm ~3 J/cm^2 (then 265 nm)
  Titer Post-First: <−0.11
[2]; Light 1 340 nm ~3 J/cm^2 (then 280 nm)
  Titer Post-First: 0.73
[2]; Light 1 365 nm then Light 2 265 nm
  Titer Post-Second: <−0.11
[2]; Light 1 365 nm then Light 2 280 nm
  Titer Post-Second: <−0.11
[2]; Light 1 365 nm ~3 J/cm^2 (then 265 nm)
  Titer Post-First: <−0.11
[2]; Light 1 365 nm ~3 J/cm^2 (then 280 nm)
  Titer Post-First: <−0.11
[3]; 220 mL, 340 nm LED ~3.0 J/cm^2
  Log Inact.: 2.28 log and 2.39 log
  Post-Txt Titer: 4.32 log10 and 2.85 log10
[3]; 220 mL, INT 100 ~3.0 J/cm^2
  Log Inact.: 2.02 log and 1.97 log
  Post-Txt Titer: 4.58 log10 and 3.27 log10
[3]; 220 mL
  Pre-Txt Titer: 6.60 log10 and 5.24 log10
[3]; 350 mL, 340 nm LED ~3.0 J/cm^2
  Log Inact.: 2.34 log and 2.21 log
  Post-Txt Titer: 4.26 log10 and 3.03 log10
[3]; 350 mL, INT 100 ~3.0 J/cm^2
  Log Inact.: 1.76 log and 1.66 log
  Post-Txt Titer: 4.93 log10 and 3.58 log10
[3]; 350 mL
  Pre-Txt Titer: 6.60 log10 and 5.24 log10
[3]; 340 nm LED ~6.4 J/cm^2
  Log inactivation: 4.6 log
  Post-treatment titer: 1.7 log PFU
[3]; 340 nm unit
  Pre-treatment titer: 6.3 log PFU
[3]; 365 nm LED ~6.4 J/cm^2
  Log inactivation: 3.0 log
  Post-treatment titer: 3.3 log PFU
[3]; 365 nm unit
  Pre-treatment titer: 6.3 log PFU
[3]; INT-100 unit
  Pre-treatment titer: 6.3 log PFU
[3]; INT-100 ~6.4 J/cm^2
  Log inactivation: 3.4 log
  Post-treatment titer: 2.9 log PFU
[4]; 15 μM, 4 hr incubation, 340 nm ~3 J/cm^2
  Log inactivation: 2.7 log PFU/mL
[4]; 15 μM, 8 hr incubation, 340 nm ~3 J/cm^2
  Log inactivation: 4.2 log PFU/mL
[4]; 15 μM, 8 hr, 340 nm ~3 J/cm^2 Top Only
  Log inactivation: 4.1 log PFU/mL
[4]; 15 μM, 8 hr, 340 nm ~3 J/cm^2 Top/Bottom
  Log inactivation: 3.9 log PFU/mL
[4]; 15 μM, 24 hr incubation, 340 nm ~3 J/cm^2
  Log inactivation: >5.6 log PFU/mL
[4]; 15 μM, 24 hr, 340 nm ~3 J/cm^2 Top Only
  Log inactivation: >6.3 log PFU/mL
[4]; 15 μM, 24 hr, 340 nm ~3 J/cm^2 Top/Bottom
  Log inactivation: >6.3 log PFU/mL
[4]; 30 μM, 4 hr incubation, 340 nm ~3 J/cm^2
  Log inactivation: 4.0 log PFU/mL
[4]; 30 μM, 8 hr incubation, 340 nm ~3 J/cm^2
  Log inactivation: >5.6 log PFU/mL
[4]; 30 μM, 8 hr, 340 nm ~3 J/cm^2 Top Only
  Log inactivation: >6.3 log PFU/mL
[4]; 30 μM, 8 hr, 340 nm ~3 J/cm^2 Top/Bottom
  Log inactivation: 6.3 log PFU/mL
[4]; 30 μM, 24 hr incubation, 340 nm ~3 J/cm^2
  Log inactivation: >5.6 log PFU/mL
[4]; 30 μM, 24 hr, 340 nm ~3 J/cm^2 Top Only
  Log inactivation: >6.3 log PFU/mL
[4]; 30 μM, 24 hr, 340 nm ~3 J/cm^2 Top/Bottom
  Log inactivation: >6.3 log PFU/mL
[4]; 90 μM, 4 hr incubation, 340 nm ~3 J/cm^2
  Log inactivation: >5.6 log PFU/mL
[4]; 90 μM, 8 hr incubation, 340 nm ~3 J/cm^2
  Log inactivation: >5.6 log PFU/mL
[4]; 90 μM, 24 hr incubation, 340 nm ~3 J/cm^2
  Log inactivation: >5.6 log PFU/mL
[4]; 150 μM, 0 hr incubation, 340 nm, more than twice ~3 J/cm^2
  Log inactivation: 2.5 log PFU/mL
[4]; 150 μM, 0 hr, 340 nm Top Only (1-sided)
  Log inactivation: 4.6 log PFU/mL
[4]; 150 μM, 0 hr, 340 nm Top/Bottom (2-sided)
  Log inactivation: 3.5 log PFU/mL
[5]; 340 nm
  ATP: 4.0 mmol/×10^8
  Lysis: 2.36%
  pH (37° C.): 6.61
[5]; 365 nm
  ATP: 4.8 mmol/×10^8
  Lysis: 1.72%
  pH (37° C.): 6.74
[5]; INT 100
  ATP: 4.1 mmol/×10^8
  Lysis: 2.25%
  pH (37° C.): 6.60
